Measured values: US7294635B2 (Portola Pharmaceuticals, Inc., priority 2003, dated 2007)

Each compound was assayed on ADP-induced human platelet aggregation (assay: Inhibition of ADP-mediated platelet aggregation in vitro using platelet-rich plasma (PRP assay)). Details: 5 min; human platelet-rich plasma, 2 μM ADP, 96-well microtiter, OD 650 nm at 5 min; read-out: Activity in the PRP assay.
Format: cell-based
Method: This Example Provides an Assay for the Inhibition of ADP-Mediated Platelet Aggregation In Vitro Using Platelet-Rich Plasma (PRP)
Platelet-rich plasma (PRP) is prepared by centrifugation at 160×g for 20 minutes at room temperature. PRP is collected, and the platelet concentration is determined using a Coulter counter or hemocytometer (platelet concentration should be 2-4×10^8 platelets per mL).
Inhibition of ADP-dependent aggregation is preferably determined in 96-well flat-bottom microtiter plates using a microtiter plate shaker and plate reader similar to the procedure described by Frantantoni et al., Am. J. Clin. Pathol. […] All steps are performed at room temperature. The total reaction volume of 0.2 mL/well includes: PRP (˜6×10^7 total platelets in the presence of plasma), serial dilutions of test compounds (buffer for control wells) in 0.6% DMSO. After about 5 minutes preincubation at room temperature, ADP is added to a final concentration of 2 μM which induces submaximal aggregation. Buffer is added instead of ADP to one set of control wells (ADP-control). The OD of the samples is then determined at 650 nm using a microtiter plate reader (Softmax, Molecular Devices, Menlo Park, Calif.) resulting in the 0 minute reading. The plates are then agitated for 5 min on a microtiter plate shaker and the 5 minute reading is obtained in the plate reader. Aggregation is calculated from the decrease of OD at 650 nm at t=5 minutes compared to t=0 minutes and is expressed as % of the decrease in the ADP control samples after correcting for changes in the unaggregated control samples.

Row | SMILES | IC50 [µM]
1 | CNc1cc2ccn(-c3ccc(NC(=O)NS(=O)(=O)c4ccc(Cl)s4)c(OCCN(C)C)c3)c(=O)c2cc1F [Example 93, 5-chloro-N-[({2-[2-(dimethylamino)ethoxy]-4-[7-fluoro-6-(methylamino)-1-oxoisoquinolin-2(1H)-yl]phenyl}amino)carbonyl]thiophene-2-sulfonamide] | < 10
2 | CNc1cc2ccn(-c3ccc(NC(=O)NS(=O)(=O)c4ccc(Cl)s4)c(C4CC4)c3)c(=O)c2cc1F [Example 94, 5-chloro-N-[({2-cyclopropyl-4-[7-fluoro-6-(methylamino)-1-oxoisoquinolin-2(1H)-yl]phenyl}amino)carbonyl]thiophene-2-sulfonamide] | < 10
3 | CNc1cc2ccn(-c3ccc(NC(=O)NS(=O)(=O)c4ccc(Cl)s4)cc3C(F)(F)F)c(=O)c2cc1F [Example 95, 5-chloro-N-({[4-[7-fluoro-6-(methylamino)-1-oxoisoquinolin-2(1H)-yl]-3-(trifluoromethyl)phenyl]amino}carbonyl)thiophene-2-sulfonamide] | > 30
4 | CNc1cc2ccn(-c3cc(C)c(NC(=O)NS(=O)(=O)c4ccc(Cl)s4)c(C)c3)c(=O)c2cc1F [Example 96, 5-chloro-N-[({4-[7-fluoro-6-(methylamino)-1-oxoisoquinolin-2(1H)-yl]-2,6-dimethylphenyl}amino)carbonyl]thiophene-2-sulfonamide] | < 10
5 | CNc1cc2ccn(-c3ccc(NC(=O)NS(=O)(=O)c4ccc(Cl)s4)c(C(F)(F)F)c3)c(=O)c2cc1F [Example 97, 5-chloro-N-({[4-[7-fluoro-6-(methylamino)-1-oxoisoquinolin-2(1H)-yl]-2-(trifluoromethyl)phenyl]amino}carbonyl)thiophene-2-sulfonamide] | < 10
6 | CNc1cc2ccn(-c3ccc(NC(=O)NS(=O)(=O)c4ccc(Cl)s4)c(C(=O)OC)c3)c(=O)c2cc1F [Example 98, methyl 2-[({[(5-chlorothien-2-yl)sulfonyl]amino}carbonyl)amino]-5-[7-fluoro-6-(methylamino)-1-oxoisoquinolin-2(1H)-yl]benzoate] | < 10
7 | CNc1cc2ccn(-c3ccc(NC(=O)NS(=O)(=O)c4ccc(Cl)s4)c(C(=O)O)c3)c(=O)c2cc1F [Example 99, 2-[({[(5-chlorothien-2-yl)sulfonyl]amino}carbonyl)amino]-5-[7-fluoro-6-(methylamino)-1-oxoisoquinolin-2(1H)-yl]benzoic acid] | < 10
8 | CNc1cc2ccn(-c3cc(C)c(NC(=O)NS(=O)(=O)c4ccc(Cl)s4)c(C(C)C)c3)c(=O)c2cc1F [Example 100, 5-chloro-N-[({4-[7-fluoro-6-(methylamino)-1-oxoisoquinolin-2(1H)-yl]-2-isopropyl-6-methylphenyl}amino)carbonyl]thiophene-2-sulfonamide] | 10 to 30
9 | CNc1cc2ccn(-c3cc(C)c(NC(=O)NS(=O)(=O)c4ccc(Cl)s4)c(C(=O)OC)c3)c(=O)c2cc1F [Example 101, methyl 2-[({[(5-chlorothien-2-yl)sulfonyl]amino}carbonyl)amino]-5-[7-fluoro-6-(methylamino)-1-oxoisoquinolin-2(1H)-yl]-3-methylbenzoate] | < 10
10 | CNc1cc2ccn(-c3ccc(NC(=O)NS(=O)(=O)c4ccc(Cl)s4)c(S(C)(=O)=O)c3)c(=O)c2cc1F [Example 102, 5-chloro-N-({[4-[7-fluoro-6-(methylamino)-1-oxoisoquinolin-2(1H)-yl]-2-(methylsulfonyl)phenyl]amino}carbonyl)thiophene-2-sulfonamide] | > 30
11 | CNc1cc2ccn(-c3ccc(NC(=O)NS(=O)(=O)c4ccc(Cl)s4)c(Cl)c3)c(=O)c2cc1F [Example 103, 5-chloro-N-[({2-chloro-4-[7-fluoro-6-(methylamino)-1-oxoisoquinolin-2(1H)-yl]phenyl}amino)carbonyl]thiophene-2-sulfonamide] | < 10
12 | CNc1c(F)cc2c(=O)n(-c3ccc(NC(=O)NS(=O)(=O)c4ccc(Cl)s4)cc3)ccc2c1Br [Example 109, N-[({4-[5-bromo-7-fluoro-6-(methylamino)-1-oxoisoquinolin-2(1H)-yl]phenyl}amino)carbonyl]-5-chlorothiophene-2-sulfonamide] | > 30
13 | CNc1c(F)cc2c(=O)n(-c3ccc(NC(=O)NS(=O)(=O)c4ccc(Cl)s4)cc3)ccc2c1C#N [Example 118, 5-chloro-N-[({4-[5-cyano-7-fluoro-6-(methylamino)-1-oxoisoquinolin-2(1H)-yl]phenyl}amino)carbonyl]thiophene-2-sulfonamide] | 10 to 30
14 | CNc1c(F)cc2c(=O)n(-c3ccc(NC(=O)NS(=O)(=O)c4ccc(Cl)s4)cc3)ccc2c1C [Example 120, 5-chloro-N-[({4-[7-fluoro-5-methyl-6-(methylamino)-1-oxoisoquinolin-2(1H)-yl]phenyl}amino)carbonyl]thiophene-2-sulfonamide] | < 10
